Laboratory results published in ChEMBL document CHEMBL1153358, “Amide analogs of antifungal dioxane-triazole derivatives: synthesis and in vitro activities” (Bioorg Med Chem Lett, 2009).
≈ marks a conversion by molar mass, not a printed value.

What was measured:
Candida albicans [1] = assay: Antifungal activity against fluconazole-resistant Candida albicans TIMM3164; assay type: functional
Nakaseomyces glabratus = assay: Antifungal activity against Candida glabrata ATCC 90030; assay type: functional
Aspergillus flavus = assay: Antifungal activity against Aspergillus flavus SANK 18497; assay type: functional
Candida albicans [2] = assay: Antifungal activity against Candida albicans SANK 51486; assay type: functional
Aspergillus fumigatus [3] = assay: Antifungal activity against Aspergillus fumigatus SANK 10569; assay type: functional
Candida tropicalis = assay: Antifungal activity against Candida tropicalis ATCC 750; assay type: functional
Cryptococcus neoformans = assay: Antifungal activity against Cryptococcus neoformans TIMM 1855; assay type: functional
Pichia kudriavzevii = assay: Antifungal activity against Candida krusei ATCC 6258; assay type: functional
[4] = Chemical stability assessed as half life in HCl; assay type: physicochemical
Candida parapsilosis = assay: Antifungal activity against Candida parapsilosis ATCC 90018; assay type: functional; conditions: Lodderomyces parapsilosis
Candida albicans [5] = assay: Antifungal activity against Candida albicans ATCC 64550; assay type: functional
Candida albicans [6] = assay: Antifungal activity against Candida albicans ATCC 24433; assay type: functional
Aspergillus fumigatus [7] = assay: Antifungal activity against Aspergillus fumigatus ATCC 26430; assay type: functional
[8] = Bioavailability in rat at 20 mg/kg, po; assay type: ADME, organism-based; conditions: in vivo

Compound	MIC (Candida albicans [1]) [µg/mL]	MIC (Nakaseomyces glabratus) [µg/mL]	MIC (Aspergillus flavus) [µg/mL]	MIC (Candida albicans [2]) [µg/mL]	MIC (Aspergillus fumigatus [3]) [µg/mL]	MIC (Candida tropicalis) [µg/mL]	MIC (Cryptococcus neoformans) [µg/mL]	MIC (Pichia kudriavzevii) [µg/mL]	half-life [4] [h]	MIC (Candida parapsilosis) [µg/mL]	MIC (Candida albicans [5]) [µg/mL]	MIC (Candida albicans [6]) [µg/mL]	MIC (Aspergillus fumigatus [7]) [µg/mL]	bioavailability [8] [%]
C[C@@H](S[C@H]1CO[C@H](c2ccc(C(=O)Nc3ccc(Cl)cc3)cc2)OC1)[C@](O)(Cn1cncn1)c1ccc(F)cc1F	≤ 0.008	> 4	0.125 (≈ 0.208 µM)	≤ 0.008	0.063 (≈ 0.105 µM)	0.016 (≈ 0.0266 µM)	0.016 (≈ 0.0266 µM)							
C[C@@H](S[C@H]1CO[C@H](/C=C/C(=O)c2ccc(F)cc2)OC1)[C@](O)(Cn1cncn1)c1ccc(F)cc1F.O=C(O)/C=C\C(=O)O	0.125	1	> 4	≤ 0.008	1	0.5	0.125							
C[C@@H](S[C@H]1CO[C@H](c2ccc(C(=O)Nc3ccc(O)cc3)cc2)OC1)[C@](O)(Cn1cncn1)c1ccc(F)cc1F	0.063 (≈ 0.108 µM)	> 4	1 (≈ 1.72 µM)	0.016 (≈ 0.0275 µM)	0.5 (≈ 0.858 µM)	0.25 (≈ 0.429 µM)	0.25 (≈ 0.429 µM)							
C[C@@H](S[C@H]1CO[C@H](c2ccc(C(=O)Nc3ccc(C#N)c(Cl)c3)cc2)OC1)[C@](O)(Cn1cncn1)c1ccc(F)cc1F	0.016 (≈ 0.0256 µM)	1 (≈ 1.6 µM)	0.25 (≈ 0.399 µM)	≤ 0.008	0.125 (≈ 0.2 µM)	0.063 (≈ 0.101 µM)	0.031 (≈ 0.0495 µM)							
C[C@@H](S[C@H]1CO[C@H](c2ccc(C(=O)Nc3ccc(C#N)c(C#N)c3)cc2)OC1)[C@](O)(Cn1cncn1)c1ccc(F)cc1F	0.016 (≈ 0.0259 µM)	> 4	0.5 (≈ 0.811 µM)	≤ 0.008	0.25 (≈ 0.405 µM)	0.031 (≈ 0.0503 µM)	0.063 (≈ 0.102 µM)							
C[C@@H](S[C@H]1CO[C@H](c2ccc(C(=O)Nc3ccc(C#N)cc3)cc2F)OC1)[C@](O)(Cn1cncn1)c1ccc(F)cc1F	0.031 (≈ 0.0509 µM)	2 (≈ 3.28 µM)	0.25 (≈ 0.41 µM)	≤ 0.008	0.063 (≈ 0.103 µM)	≤ 0.008	0.031 (≈ 0.0509 µM)							
CC(=O)c1ccc(NC(=O)c2ccc([C@H]3OC[C@H](S[C@H](C)[C@](O)(Cn4cncn4)c4ccc(F)cc4F)CO3)cc2)cc1	0.031 (≈ 0.0509 µM)	> 4	0.25 (≈ 0.411 µM)	≤ 0.008	0.063 (≈ 0.104 µM)	0.125 (≈ 0.205 µM)	0.125 (≈ 0.205 µM)							
C[C@@H](S[C@H]1CO[C@H](c2ccc(C(=O)Nc3ccc(Br)cc3)cc2)OC1)[C@](O)(Cn1cncn1)c1ccc(F)cc1F	0.016 (≈ 0.0248 µM)	> 4	0.125 (≈ 0.194 µM)	≤ 0.008	0.063 (≈ 0.0976 µM)	≤ 0.008	0.016 (≈ 0.0248 µM)							
C[C@@H](S[C@H]1CO[C@H](c2ccc(C(=O)Nc3ccc(OCC(F)(F)C(F)F)cc3)cc2)OC1)[C@](O)(Cn1cncn1)c1ccc(F)cc1F	0.031 (≈ 0.0445 µM)	> 4	0.5 (≈ 0.718 µM)	0.016 (≈ 0.023 µM)	0.125 (≈ 0.179 µM)	0.125 (≈ 0.179 µM)	0.063 (≈ 0.0904 µM)							
Cc1ccc(NC(=O)c2ccc([C@H]3OC[C@H](S[C@H](C)[C@](O)(Cn4cncn4)c4ccc(F)cc4F)CO3)cc2)cc1	0.016 (≈ 0.0276 µM)	2 (≈ 3.44 µM)	0.25 (≈ 0.431 µM)	≤ 0.008	0.063 (≈ 0.108 µM)	≤ 0.008	0.031 (≈ 0.0534 µM)							
C[C@@H](S[C@H]1CO[C@H](c2ccc(C(=O)Nc3ccc(C#N)cc3)cc2)OC1)[C@](O)(Cn1cncn1)c1ccc(F)cc1F	≤ 0.008	2 (≈ 3.38 µM)	0.125 (≈ 0.211 µM)	≤ 0.008	0.031 (≈ 0.0524 µM)	0.016 (≈ 0.027 µM)	0.031 (≈ 0.0524 µM)	0.063 (≈ 0.106 µM)	2.67	≤ 0.008	0.25 (≈ 0.423 µM)	≤ 0.008	0.031 (≈ 0.0524 µM)	31.7
C[C@@H](S[C@H]1CO[C@H](c2ccc(C(=O)Nc3ccc(F)cc3)cc2)OC1)[C@](O)(Cn1cncn1)c1ccc(F)cc1F	0.016 (≈ 0.0274 µM)	2 (≈ 3.42 µM)	0.25 (≈ 0.428 µM)	≤ 0.008	0.125 (≈ 0.214 µM)	0.016 (≈ 0.0274 µM)	0.031 (≈ 0.053 µM)							
C[C@@H](S[C@H]1CO[C@H](c2ccc(C(=O)N3CCN(c4ccccc4)CC3)cc2)OC1)[C@](O)(Cn1cncn1)c1ccc(F)cc1F	0.125 (≈ 0.197 µM)	2 (≈ 3.15 µM)	2 (≈ 3.15 µM)	0.016 (≈ 0.0252 µM)	1 (≈ 1.57 µM)	0.5 (≈ 0.786 µM)	0.016 (≈ 0.0252 µM)							
C[C@@H](S[C@H]1CO[C@H](c2ccc(C(=O)Nc3ccc(C#N)cc3F)cc2)OC1)[C@](O)(Cn1cncn1)c1ccc(F)cc1F	0.016 (≈ 0.0262 µM)	> 4	0.125 (≈ 0.205 µM)	≤ 0.008	0.031 (≈ 0.0509 µM)	0.031 (≈ 0.0509 µM)	0.063 (≈ 0.103 µM)							
C[C@@H](S[C@H]1CO[C@H](/C=C/C(=O)Nc2ccc(F)cc2)OC1)[C@](O)(Cn1cncn1)c1ccc(F)cc1F	0.125 (≈ 0.234 µM)	4 (≈ 7.48 µM)	4 (≈ 7.48 µM)	< 0.008	0.5 (≈ 0.935 µM)	0.125 (≈ 0.234 µM)	0.125 (≈ 0.234 µM)							
C[C@@H](S[C@H]1CO[C@H](c2ccc(C(=O)Nc3ccncc3)cc2)OC1)[C@](O)(Cn1cncn1)c1ccc(F)cc1F	0.031 (≈ 0.0546 µM)	> 4	0.25 (≈ 0.44 µM)	≤ 0.008	0.25 (≈ 0.44 µM)	0.125 (≈ 0.22 µM)	0.125 (≈ 0.22 µM)							
C[C@@H](S[C@H]1CO[C@H](c2ccc(C(=O)Nc3nccs3)cc2)OC1)[C@](O)(Cn1cncn1)c1ccc(F)cc1F	0.031 (≈ 0.054 µM)	2 (≈ 3.49 µM)	0.5 (≈ 0.872 µM)	≤ 0.008	0.063 (≈ 0.11 µM)	0.125 (≈ 0.218 µM)	0.125 (≈ 0.218 µM)							
C[C@@H](S[C@H]1CO[C@H](c2ccc(C(=O)N3CCSCC3)cc2)OC1)[C@](O)(Cn1cncn1)c1ccc(F)cc1F	0.125 (≈ 0.217 µM)	4 (≈ 6.94 µM)	4 (≈ 6.94 µM)	0.016 (≈ 0.0277 µM)	0.5 (≈ 0.867 µM)	0.5 (≈ 0.867 µM)	0.031 (≈ 0.0538 µM)							
C[C@@H](S[C@H]1CO[C@H](/C=C/C=C/c2ccc(F)cc2)OC1)[C@](O)(Cn1cncn1)c1ccc(F)cc1F	0.063 (≈ 0.122 µM)	1 (≈ 1.93 µM)	0.25 (≈ 0.483 µM)	≤ 0.008	0.063 (≈ 0.122 µM)	0.25 (≈ 0.483 µM)	0.016 (≈ 0.0309 µM)							
C[C@@H](S[C@H]1CO[C@H](c2ccc(C(=O)N3CCOCC3)cc2)OC1)[C@](O)(Cn1cncn1)c1ccc(F)cc1F	0.25 (≈ 0.446 µM)	> 4	> 4	0.063 (≈ 0.112 µM)	4 (≈ 7.13 µM)	1 (≈ 1.78 µM)	0.125 (≈ 0.223 µM)							
C[C@@H](S[C@H]1CO[C@H](c2ccc(C(=O)Nc3ccc(SC(F)(F)F)cc3)cc2)OC1)[C@](O)(Cn1cncn1)c1ccc(F)cc1F	0.031 (≈ 0.0465 µM)	1 (≈ 1.5 µM)	0.5 (≈ 0.75 µM)	≤ 0.008	0.25 (≈ 0.375 µM)	0.031 (≈ 0.0465 µM)	0.016 (≈ 0.024 µM)							
C[C@@H](S[C@H]1CO[C@H](c2cccc(C(=O)Nc3ccc(C#N)cc3)c2)OC1)[C@](O)(Cn1cncn1)c1ccc(F)cc1F	0.25 (≈ 0.423 µM)	2 (≈ 3.38 µM)	> 4	≤ 0.008	2 (≈ 3.38 µM)	1 (≈ 1.69 µM)	1 (≈ 1.69 µM)							
C[C@@H](S[C@H]1CO[C@H](c2ccc3cc(C(=O)Nc4ccc(C#N)cc4)ccc3c2)OC1)[C@](O)(Cn1cncn1)c1ccc(F)cc1F	0.031 (≈ 0.0483 µM)	> 4	0.25 (≈ 0.39 µM)	≤ 0.008	0.063 (≈ 0.0982 µM)	0.016 (≈ 0.0249 µM)	0.063 (≈ 0.0982 µM)							
C[C@@H](S[C@H]1CO[C@H](/C=C/S(=O)(=O)c2ccc(F)cc2)OC1)[C@](O)(Cn1cncn1)c1ccc(F)cc1F.O=C(O)/C=C\C(=O)O	0.125	2	> 4	≤ 0.008	4	0.5	0.125							
C[C@@H](S[C@H]1CO[C@H](/C=C/C=C/c2ccc(C#N)cc2F)OC1)[C@](O)(Cn1cncn1)c1ccc(F)cc1F [EMBECONAZOLE]	0.063 (≈ 0.116 µM)	1 (≈ 1.84 µM)	0.25 (≈ 0.461 µM)	≤ 0.008	0.063 (≈ 0.116 µM)	0.25 (≈ 0.461 µM)	0.016 (≈ 0.0295 µM)	0.25 (≈ 0.461 µM)	0.107	0.016 (≈ 0.0295 µM)	0.5 (≈ 0.922 µM)	0.016 (≈ 0.0295 µM)	0.063 (≈ 0.116 µM)	113
OC(Cn1cncn1)(Cn1cncn1)c1ccc(F)cc1F [FLUCONAZOLE]	> 4	> 4	> 4	0.25 (≈ 0.816 µM)	> 4	2 (≈ 6.53 µM)	> 4	> 4		0.5 (≈ 1.63 µM)	> 4	0.5 (≈ 1.63 µM)	> 4	
CCC(C)n1ncn(-c2ccc(N3CCN(c4ccc(OCC5COC(Cn6cncn6)(c6ccc(Cl)cc6Cl)O5)cc4)CC3)cc2)c1=O (stereo not drawn) [ITRACONAZOLE]	0.25 (≈ 0.354 µM)	1 (≈ 1.42 µM)	0.5 (≈ 0.709 µM)	0.031 (≈ 0.0439 µM)	0.25 (≈ 0.354 µM)	0.5 (≈ 0.709 µM)	0.25 (≈ 0.354 µM)	0.5 (≈ 0.709 µM)		0.125 (≈ 0.177 µM)	1 (≈ 1.42 µM)	0.125 (≈ 0.177 µM)	0.25 (≈ 0.354 µM)	
